Reference: US7906501B2, “Pyrrole derivatives with angiotensin II antagonist activity” (Rottapharm S.p.A., priority 2004, dated 2011)
Each block holds one molecule with its values, some of them ahead of it.

Tests used:
AT1 receptor = target: T1, AT1 receptor (Rattus norvegicus, UniProt P25095); experiment: Inhibition of [125I]Sar1,Ile8-angiotensin II binding in rat liver membranes; details: for IC50: rat liver membranes
T1 construct: from tissue; host or cells: rat liver membranes
T1 sequence (P25095 1-359): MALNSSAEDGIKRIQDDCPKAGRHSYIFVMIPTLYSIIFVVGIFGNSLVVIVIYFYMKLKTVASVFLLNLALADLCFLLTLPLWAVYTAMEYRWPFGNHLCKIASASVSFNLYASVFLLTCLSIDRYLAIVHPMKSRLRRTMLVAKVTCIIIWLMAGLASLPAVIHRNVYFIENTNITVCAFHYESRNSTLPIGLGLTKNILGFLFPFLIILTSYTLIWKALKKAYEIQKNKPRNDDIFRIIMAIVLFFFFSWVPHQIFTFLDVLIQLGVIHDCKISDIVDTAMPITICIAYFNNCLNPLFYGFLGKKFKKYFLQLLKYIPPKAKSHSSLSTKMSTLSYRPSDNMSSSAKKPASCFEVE
Experimental: Antagonist activity at the AT1 receptor on the part of compounds provided by the invention was assessed as the capacity to inhibit binding of the specific AII agonist to rat liver membranes. The method described by R. S. L. Chang et al., [JPET (1992), 262, 133-38] and M. J. Robertson et al., [Br. J. Pharmacol. (1992), 107, 1173-1180] was used with slight modifications. The concentration of radioligand [[…]]-Sar1, Ile^8-angiotensin II used was 25 pM with a membrane content corresponding to a protein concentration of approx. 25 μg of protein per sample; the incubation time was 180 minutes at 25° C. Separation of the bound from the free was carried out by rapid filtration on GFB Millipore glass fibre filters.

[1] = test system: spontaneously hypertensive rat (SHR); experiment: Reduction in systolic arterial pressure in the SHR rat after I.P. administration; assay type: in vivo; details: for Max. effect at 15 mg/kg (% reduction vs. basal): 0-120 min, systolic pressure; for ED15 (0-120 min): sodium salts, doses 5-20 mg/kg, dose giving 15% reduction in average basal systolic pressure, NC = not calculable, effect < 10% at all doses
[2] = test system: renally hypertensive rat (RHR); experiment: Reduction in systolic arterial pressure in the RHR rat after I.P. administration; assay type: in vivo; details: for Max. effect at 15 mg/kg (% reduction vs. basal): 0-120 min, systolic pressure; for ED15 (0-120 min): sodium salts, doses 5-20 mg/kg, dose giving 15% reduction in average basal systolic pressure, NC = not calculable, effect < 10% at all doses
in vitro = details: human, Caco-2
Experimental: (§1) Gres et al. Pharm.; Res. 15 (1998), pages 726-733].
(§2) A→B permeability was thus assessed, namely the apparent permeability coefficient (Papp), of the compounds under investigation, tested at a concentration of 50 μM with an incubation time of 60 minutes, in the apical-to-basolateral direction. B→A permeability is reversely assessed, i.e. in a basolateral-to-apical direction, with an incubation time of 40 minutes.

TC7 cell monolayer = experiment: in vitro; details: human, Caco-2, 50 μM
Experimental: as §1, §2

[3] = displacement of 25 pM [125I]-Sar1,Ile8-angiotensin II, 180 min at 25° C.

Structure (SMILES): CCCCc1nc(Cl)c(CO)n1Cc1ccc(-c2ccccc2-c2nn[nH]n2)cc1 [Losartan, losartan]
- Max. effect at 15 mg/kg (% reduction vs. basal) [1]: 12.0 % reduction vs. basal
- ED15 (0-120 min) [1]: 25.4 mg/kg
- Max. effect at 15 mg/kg (% reduction vs. basal) [2]: 18.9 % reduction vs. basal
- ED15 (0-120 min) [2]: 16.4 mg/kg

Structure (SMILES): CCCCc1ncc(/C=C(\Cc2cccs2)C(=O)O)n1Cc1ccc(C(=O)O)cc1 [Eprosartan, eprosartan, reference compound]
- Max. effect at 15 mg/kg (% reduction vs. basal) [1]: 5.0 % reduction vs. basal
- Max. effect at 15 mg/kg (% reduction vs. basal) [2]: 9.2 % reduction vs. basal
- Papp A→B at 60 min, 50 μM (in vitro): 0.1 ×10⁻⁶ cm/s
- Papp B→A at 40 min, 50 μM (in vitro): 0.4 ×10⁻⁶ cm/s

Structure (SMILES): CCCCC(=O)N(Cc1ccc(-c2ccccc2-c2nnn[nH]2)cc1)[C@H](C(=O)O)C(C)C [Valsartan, valsartan, reference compound]
- IC50 (AT1 receptor; [3]): 3.4 nM
- Max. effect at 15 mg/kg (% reduction vs. basal) [1]: 14.4 % reduction vs. basal
- ED15 (0-120 min) [1]: 26.2 mg/kg
- Max. effect at 15 mg/kg (% reduction vs. basal) [2]: 19.0 % reduction vs. basal
- ED15 (0-120 min) [2]: 16.0 mg/kg
- Papp A→B at 60 min, 50 μM (in vitro): 0.2 ×10⁻⁶ cm/s
- Papp B→A at 40 min, 50 μM (in vitro): 0.2 ×10⁻⁶ cm/s
- Ratio (1/2) (TC7 cell monolayer): 1.0

Structure (SMILES): Cc1ccc(C)n1Cc1ccc(-c2ccccc2-c2nnn[nH]2)cc1 [Compound 14, 2,5-Dimethyl-1-[2′-(1H-tetrazol-5-yl)biphenyl-4-yl-methyl]pyrrole]
- IC50 (AT1 receptor; [3]): 10700 nM
- melting point: 107 °C

Structure (SMILES): CC(C)CCc1cc(C(C)C)c(C=O)n1Cc1ccc(-c2ccccc2-c2nnn[nH]2)cc1 [Compound 9, 5-[(3-Methyl)butyl]-3-isopropyl-1-[2′-(1H-tetrazol-5-yl)biphenyl-4-yl-methyl]-2-pyrrolaldehyde]
- IC50 (AT1 receptor; [3]): 37.2 nM
- melting point: 144 °C

Structure (SMILES): CCCc1cc(C(C)C)c(C)n1Cc1ccc(-c2ccccc2-c2nnn[nH]2)cc1 [Compound 15, 2-Methyl-5-n-propyl-3-isopropyl-1-[2′-(1H-tetrazol-5-yl)biphenyl-4-yl-methyl]pyrrole]
- IC50 (AT1 receptor; [3]): 1190 nM
- melting point: 160 °C

Structure (SMILES): CCCc1cc(C(C)C)c(C=O)n1Cc1ccc(-c2ccccc2-c2nnn[nH]2)cc1 [Compound 5, 5-n-Propyl-3-isopropyl-1-[2′-(1H-tetrazol-5-yl)biphenyl-4-yl-methyl]-2-pyrrolaldehyde]
- IC50 (AT1 receptor; [3]): 35.7 nM
- melting point: 180 °C

Structure (SMILES): CCCc1c(Cl)cc(C=O)n1Cc1ccc(-c2ccccc2-c2nnn[nH]2)cc1 [Compound 4, 4-Chloro-5-n-propyl-1-[2′-(1H-tetrazol-5-yl)biphenyl-4-yl-methyl]-2-pyrrolaldehyde]
- IC50 (AT1 receptor; [3]): 615 nM
- melting point: 150 °C

Structure (SMILES): CCCc1c(Br)cc(C=O)n1Cc1ccc(-c2ccccc2-c2nnn[nH]2)cc1 [Compound 3, 4-Bromo-5-n-propyl-1-[2′-(1H-tetrazol-5-yl)biphenyl-4-yl-methyl]-2-pyrrolaldehyde]
- IC50 (AT1 receptor; [3]): 1050 nM
- melting point: 167 °C

Structure (SMILES): CCCCCc1cc(C(C)C)c(C=O)n1Cc1ccc(-c2ccccc2-c2nnn[nH]2)cc1 [Compound 8, 5-n-Pentyl-3-isopropyl-1-[2′-(1H-tetrazol-5-yl)biphenyl-4-yl-methyl]-2-pyrrolaldehyde]
- IC50 (AT1 receptor; [3]): 105 nM
- melting point: 144 °C

More lines, main results first:

- times more potent than the BPT-pyrrole derivative of EP-0323841 (AT1 receptor; 8.9 nM vs. 1.6 μM of compound 277 of EP 0 323 841): approx. 200 times
- IC50 (AT1 receptor; AT1 binding): 8.9 nM
- times less potent than valsartan and eprosartan in vitro (AT1 receptor; respectively vs. valsartan and eprosartan): approx. ⅗
- Papp A→B at 60 min, 50 μM (in vitro): 27.9 ×10⁻⁶ cm/s
- Papp B→A at 40 min, 50 μM (in vitro): 3.4 ×10⁻⁶ cm/s
- Ratio (1/2) (TC7 cell monolayer): 8.2
- melting point: 148 °C
Structure (SMILES): CCCCc1cc(CC(C)C)c(C=O)n1Cc1ccc(-c2ccccc2-c2nnn[nH]2)cc1 [Compound 1, 5-n-Butyl-1-[2′-(1H-tetrazol-5-yl)biphenyl-4-yl-methyl]-3-[3-(2-methyl)propyl]-2-pyrrolaldehyde]
- Max. effect at 15 mg/kg (% reduction vs. basal) [1]: 16.0 % reduction vs. basal
- ED15 (0-120 min) [1]: 17.4 mg/kg
- Max. effect at 15 mg/kg (% reduction vs. basal) [2]: 22.1 % reduction vs. basal
- ED15 (0-120 min) [2]: 12.6 mg/kg

- IC50 (AT1 receptor; [3]): 106 nM
- melting point: 170 °C
Structure (SMILES): CCCc1cc(C(C)C)c(C(=O)O)n1Cc1ccc(-c2ccccc2-c2nnn[nH]2)cc1 [Compound 11, 5-n-Propyl-3-isopropyl-1-[2′-(1H-tetrazol-5-yl)biphenyl-4-yl-methyl]-2-pyrrolecarboxylic acid]

- IC50 (AT1 receptor; [3]): 268 nM
- melting point: 142 °C
Structure (SMILES): CCCCc1ccc(C(=O)O)n1Cc1ccc(-c2ccccc2-c2nnn[nH]2)cc1 [Compound 12, 5-n-Butyl-1-[2′-(1H-tetrazol-5-yl)biphenyl-4-yl-methyl]-2-pyrrolecarboxylic acid]

- IC50 (AT1 receptor; [3]): 475 nM
- melting point: 134 °C
Structure (SMILES): CCCc1ccc(C(=O)O)n1Cc1ccc(-c2ccccc2-c2nnn[nH]2)cc1 [Compound 10, 5-n-Propyl-1-[2′-(1H-tetrazol-5-yl)biphenyl-4-yl-methyl]-2-pyrrolecarboxylic acid]

- IC50 (AT1 receptor; [3]): 444 nM
Structure (SMILES): CCCc1ccc(CO)n1Cc1ccc(-c2ccccc2-c2nnn[nH]2)cc1 [Compound 13]

- IC50 (AT1 receptor; [3]): 66.5 nM
- melting point: 129 °C
Structure (SMILES): CCCCc1ccc(C=O)n1Cc1ccc(-c2ccccc2-c2nnn[nH]2)cc1 [Compound 7, 5-n-Butyl-1-[2′-(1H-tetrazol-5-yl)biphenyl-4-yl-methyl]-2-pyrrolaldehyde]

- IC50 (AT1 receptor; [3]): 15.3 nM
- Papp A→B at 60 min, 50 μM (in vitro): 15.4 ×10⁻⁶ cm/s
- Papp B→A at 40 min, 50 μM (in vitro): 1 ×10⁻⁶ cm/s
- Ratio (1/2) (TC7 cell monolayer): 15.4
- melting point: 174 °C
Structure (SMILES): CCCCc1cc(C(C)C)c(C=O)n1Cc1ccc(-c2ccccc2-c2nnn[nH]2)cc1 [Compound 6, 5-n-Butyl-3-isopropyl-1-[2′-(1H-tetrazol-5-yl)biphenyl-4-yl-methyl]-2-pyrrolaldehyde]
- Max. effect at 15 mg/kg (% reduction vs. basal) [1]: 13.2 % reduction vs. basal
- ED15 (0-120 min) [1]: 19.3 mg/kg
- Max. effect at 15 mg/kg (% reduction vs. basal) [2]: 18.7 % reduction vs. basal
- ED15 (0-120 min) [2]: 16.0 mg/kg

- IC50 (AT1 receptor; [3]): 72.5 nM
- melting point: 104 °C
Structure (SMILES): CCCc1ccc(C=O)n1Cc1ccc(-c2ccccc2-c2nnn[nH]2)cc1 [Compound 2, 5-n-Propyl-1-[2′-(1H-tetrazol-5-yl)biphenyl-4-yl-methyl]-2-pyrrolaldehyde]
